Data on 13 compounds can be found in US8541442B2, “Indole derivatives as anticancer agents” (Janssen Pharmaceutica N.V., priority 2009, dated 2013).

SMILES strings stand for the structures.

The test system of the first data set is Male NMRI mice. The experiment in a line: Ro-4-1284 antagonism in mice. It is filed as in vivo. The conditions noted are these: 40 mg/kg. As for the experimental part: The test is a modification of a procedure described by Colpaert et al. (1975).^3 Male NMRI mice (22±3 g) were housed in macrolon observation cages (L×W×H: 11×12×17 cm; n=3 per cage). At the start of the experiments immediately before test compound administration, the initial body temperature of the mice was measured with a precision of 0.1° C. by inserting the thermo-sensitive probe (1.0 mm diameter) of an electric thermometer (Comark) to a constant depth of 3 cm into the esophagus until a stable reading was obtained. The right eye pupil diameter was measured with a graduated microscope and expressed in 1/24 mm units. Fifteen min after test compound administration, the mice were challenged with Ro-4-1284 (10 mg/kg, s.c.). Ro-4-1284 is a reserpine-like vesicular monoamine transport (VMAT-2) inhibitor, which rapidly depletes secretory vesicles.^3,4 Fifteen, 30 and 60 min after challenge, the mice were scored for palpebral opening (0, 1, 2, 3, 4, 5) and locomotor activity (−1, 0, 1, 2, 3). At the 60-min interval, immediately after the scoring of overt behavior, the right eye pupil diameter and the esophageal temperature were measured again. Abnormal phenomena such as intensive sniffing, chewing, rearing, hyperemia, piloerection, salivation, tremors, convulsions and death were noted (the latter phenomena were also noted when occurring before Ro-4-1284 administration). Criteria for drug-induced effects: reversal of ptosis: palpebral opening score >1 at 15, 30 or 60 min (2.7, 0.5 and 0% false positive controls, respectively; n>350); induction of prostration: score −1 for locomotion at 15, 30 or 60 min (never observed in controls); reversal of hypomotility: score >0 for locomotion at 15, 30 and 60 min (2.2, 0.8 and 0% false positive controls, respectively); reversal of miosis: pupil diameter >5 units at 60 min (0.8% false positives); potentiation of hypothermia: temperature decrease (over the 1-h time interval)>9.0° C. (1.4% false positives); reversal of hypothermia: temperature decrease <3.0° C. (1.8% false positives).
According to the standard procedure, R0-4-1284 is injected 15 min following subcutaneous or oral administration and observations start 15 min later. Doses are initially given to 3 animals. When at least 2 out of the 3 animals show activity for at least one of the observations, the compound is considered active.
In the case of `Cc1cc(Nc2ccnc3c2CCC3=O)ccc1NCCc1c[nH]c2c(C(C)O)cccc12` (stereo not drawn) [Compound 4], the “activity on reversal of hypomotility” value is reported as “did not show activity”, the “activity on reversal of miosis” value is “did not show activity” and the “activity on reversal of ptosis” value was “did not show activity”.

Still in this data set, the particulars now being: 80 mg/kg oral administration, 3 animals.
On to `COC1CCc2c(Nc3ccc(NCCc4c[nH]c5c(C(C)(C)O)cccc45)cc3)ccnc21` (single isomer, unassigned) [Compound 24], for which the “activity on reversal of hypomotility” value is listed as “did not show activity”, the “activity on reversal of miosis” value is reported as “did not show activity” and the “activity on reversal of ptosis” value is “did not show activity”.
For the compound `CC(C)(O)c1cccc2c(CCNc3ccc(Nc4ccnc5c4CCC5(C)O)cc3)c[nH]c12` (single isomer, unassigned) [Compound 31], the “activity on reversal of hypomotility” value is “did not show activity”, the “activity on reversal of miosis” value is reported as “did not show activity” and the “activity on reversal of ptosis” value is “did not show activity”.
On to `Cc1cc(Nc2ccnc3c2CCC3(C)O)ccc1NCCc1c[nH]c2c(C(C)(C)O)cccc12` (stereo not drawn) [Compound 1], for which the “activity on reversal of hypomotility” value was “did not show activity”, the “activity on reversal of miosis” value was “did not show activity” and the “activity on reversal of ptosis” value is “did not show activity”.
On to `Cc1cc(Nc2ccnc3c2CCC3O)ccc1NCCc1c[nH]c2c(C(C)(C)O)cccc12` (stereo not drawn) [Compound 18], for which the “activity on reversal of hypomotility” value is recorded as “did not show activity”, the “activity on reversal of miosis” value is given as “did not show activity” and the “activity on reversal of ptosis” value is “did not show activity”.
As to `CC(C)(O)c1cccc2c(CCNc3ccc(Nc4ccnc5c4CCC5(C)O)cc3)c[nH]c12` (single isomer, unassigned) [Compound 30], the “activity on reversal of hypomotility” value is reported as “did not show activity”, the “activity on reversal of miosis” value is on record as “did not show activity” and the “activity on reversal of ptosis” value is given as “did not show activity”.
Turning to `C=C(C)c1cccc2c(CCNc3ccc(Nc4ccnc5c4CCC5OC)cc3)c[nH]c12` (stereo not drawn) [Compound 7], the “activity on reversal of hypomotility” value is listed as “did not show activity”, the “activity on reversal of miosis” value was “did not show activity” and the “activity on reversal of ptosis” value is “did not show activity”.
On to `COC1CCc2c(Nc3ccc(NCCc4c[nH]c5c(C(C)(C)O)cccc45)cc3)ccnc21` (single isomer, unassigned) [Compound 25], for which the “activity on reversal of hypomotility” value is on record as “did not show activity”, the “activity on reversal of miosis” value was “did not show activity” and the “activity on reversal of ptosis” value is “did not show activity”.
`Cc1cc(Nc2ccnc3c2CCC3(C)O)ccc1NCCc1c[nH]c2c(C(C)(C)O)cccc12` (single isomer, unassigned) [Compound 27]: the “activity on reversal of hypomotility” value is listed as “did not show activity”, the “activity on reversal of miosis” value is listed as “did not show activity” and the “activity on reversal of ptosis” value is given as “did not show activity”.
Regarding `COC1CCc2c(Nc3ccc(NCCc4c[nH]c5c(C(C)(C)O)cccc45)c(C)c3)ccnc21` (single isomer, unassigned) [Compound 28], the “activity on reversal of hypomotility” value is given as “did not show activity”, the “activity on reversal of miosis” value is given as “did not show activity” and the “activity on reversal of ptosis” value was “did not show activity”.
Take `Cc1cc(Nc2ccnc3c2CCC3(C)O)ccc1NCCc1c[nH]c2c(C(C)(C)O)cccc12` (single isomer, unassigned) [Compound 26]: the “activity on reversal of hypomotility” value is on record as “did not show activity”, the “activity on reversal of miosis” value is given as “did not show activity” and the “activity on reversal of ptosis” value is “did not show activity”.
For the compound `COC1CCc2c(Nc3ccc(NCCc4c[nH]c5c(C(C)(C)O)cccc45)c(C)c3)ccnc21` (single isomer, unassigned) [Compound 29], the “activity on reversal of hypomotility” value was “did not show activity”, the “activity on reversal of miosis” value is “did not show activity” and the “activity on reversal of ptosis” value is listed as “did not show activity”.
With `Cc1cc(Nc2ccnc3c2CCC3O)ccc1NCCc1c[nH]c2c(C(C)(C)O)cccc12` (stereo not drawn) [Compound 20], the “activity on reversal of hypomotility” value is on record as “did not show activity”, the “activity on reversal of miosis” value is listed as “did not show activity” and the “activity on reversal of ptosis” value is reported as “did not show activity”.
